# Measurements: patent publication US9499790B2, “Method for promoting differentiation of pluripotent stem cells into cardiac muscle cells” (Kyoto University, priority 2010, dated 2016)
# Key:
# Type in all cases: cell-based
# [1] = test system: Human iPS (RCHIPC0003); experiment: Number of beating colonies of cardiac muscle cells; settings: KY02111 5 μM during day 4 to 14
# Procedure: (§1) The effect of promoting differentiation of each of the ES/iPS cells into cardiac muscle cells were confirmed for N11474 and KY02111 with the GFP expression level and number of beating colonies used as the indicators. Human ES cell line (Kh-1 line) (Suemori, H., et al., Efficient establishment of human embryonic stem cell lines and long-term maintenance with stable karyotype by enzymatic bulk passage. Biochem Biophys Res Commun. 345(3), 926-32 (2006)) (incorporated herein by reference) was seeded in a 6-well plate (Asahi Glass/5816-006: Ezview culture plate) in 1.2×10^6 cells/well and cultured for 22 days, with BMP4 (10 ng/ml) added during day 0 to 4 of culture and N11474 (10 μM) or KY02111 (5 μM) added during day 4 to 14 of culture. Human iPS cell lines (253G1, IMR90-1, IMR90-4 and RCHIPC0003) (Takahashi, K., et al., Induction of pluripotent stem cells from adult human fibroblasts by defined factors. Cell. 131(5), 861-72 (2007); Yu, J., et al., Induced pluripotent stem cell lines derived from human somatic cells. Science. 318(5858), 1917-20 (2007)) (these references are herein incorporated by reference) were cultured for the cardiac muscle cell differentiation in the same manner as for the human ES cells. The cardiac muscle cells from mouse ES cells (R1) were differentiated in accordance with the method described in the reference (Transient inhibition of BMP signaling by Noggin induces cardiomyocyte differentiation of mouse embryonic stem cells. Yuasa S, et al. Nat. Biotechnol. 2005 May; 23(5): 607-11; incorporated herein by reference). KY02111 (5 μM) was added for 3 days during day 6 to 9 of cardiac muscle cell differentiation culture and the beating colonies of cardiac muscle cells were analyzed at day 9. Monkey ES cells (CMK6.4) were cultured for cardiac muscle cell differentiation in the same manner as in the above (2).
# [2] = test system: Monkey ES cells (CMK6.4); experiment: Number of beating colonies of cardiac muscle cells; settings: Monkey ES (CMK6.4)
# Procedure: as §1
# [3] = test system: mouse ES cells (R1); experiment: Number of beating colonies of cardiac muscle cells; settings: KY02111 5 μM during day 6 to 9, analyzed at day 9
# Procedure: as §1
# [4] = test system: Human iPS (253G1); experiment: Number of beating colonies of cardiac muscle cells; settings: KY02111 5 μM during day 4 to 14
# Procedure: as §1
# [5] = test system: Wnt signaling target genes in human iPS cells; experiment: Gene expression analysis by DNA array and quantitative polymerase chain reaction; design: expressions of genes by DNA array (HOXA1, MSGN1, NKD1, T, TNFRSF11B, DKK1, DKK4, CDX2, MSX1, NODAL, FGF4 and others): dose or concentration left out as unconfirmed
# Procedure: (in the order of the genes whose expression were reduced most 12 hours later) HOXA1, MSGN1, NKD1, T, TNFRSF11B, DKK1, DKK4, CDX2, MSX1, NODAL, FGF4, PAPPA, PRRX1, LRAT, CYP1B1, SLC34A2, AXIN2, LGL1, SPS, MIXL1, APCDD1 and DSEL. […] The analyzed genes were as follows: MSGN1, HOXA1; T, MIXL1; Dkk1, AXIN2; NODAL and FGF4 (all known as Wnt signaling target genes).
# [6] = test system: Human iPS (IMR90-1); experiment: Number of beating colonies of cardiac muscle cells; settings: KY02111 5 μM during day 4 to 14
# Procedure: The effect of promoting differentiation of each of the ES/iPS cells into cardiac muscle cells were confirmed for N11474 and KY02111 with the GFP expression level and number of beating colonies used as the indicators. Human ES cell line (Kh-1 line) (Suemori, H., et al., Efficient establishment of human embryonic stem cell lines and long-term maintenance with stable karyotype by enzymatic bulk passage. Biochem Biophys Res Commun. 345(3), 926-32 (2006)) (incorporated herein by reference) was seeded in a 6-well plate (Asahi Glass/5816-006: Ezview culture plate) in 1.2×10^6 cells/well and cultured for 22 days, with BMP4 (10 ng/ml) added during day 0 to 4 of culture and N11474 (10 μM) or KY02111 (5 μM) added during day 4 to 14 of culture. […] KY02111 (5 μM) was added for 3 days during day 6 to 9 of cardiac muscle cell differentiation culture and the beating colonies of cardiac muscle cells were analyzed at day 9. […] The effect of BIO, a Wnt signaling activator, on the effect of promoting cardiac muscle cell differentiation of KY02111, XAV939 and IWP2 was analyzed. […] The synergistic effects between KY02111 and a known Wnt signaling inhibitor XAV939 or IWP2 in the promotion of cardiac muscle cell differentiation were analyzed.
# [7] = test system: Monkey ES cells; experiment: Cardiac muscle cell differentiation of monkey ES cells, 6-well plate, GFP expression observed at day 14
# Description: In the same manner as Example 2, the effects of promoting cardiac muscle cell differentiation were compared among KY02111 and N11474, known Wnt signaling inhibitors (IWP2, XAV939 and IWR1), proteins known to be effective in promoting cardiac muscle cell differentiation (G-CSF, IGFBP4, Dkk1 and cytokines (a mixture of bFGF, BMP4, VEGF, DKK1 and Activin A)).
# The effect of BIO, a Wnt signaling activator, on the effect of promoting cardiac muscle cell differentiation of KY02111, XAV939 and IWP2 was analyzed. […]
# [8] = KY02111 5 μM during day 4 to 8, singly
structure (smiles),measurement,setting,value
"COc1ccc(CCC(=O)Nc2nc3ccc(Cl)cc3s2)cc1OC [KY02111, 2-(3-(3,4-dimethoxyphenyl)propanamide)-6-chlorobenzothiazole]",Beating cardiac muscle cell differentiation efficiency (Control (DMSO) = 100%),[1],100% (KY02111)
same,Beating cardiac muscle cell differentiation efficiency (Control (DMSO) = 100%),[2],1850% (KY02111)
same,Beating cardiac muscle cell differentiation efficiency (Control (DMSO) = 100%),[3],200% (KY02111)
same,Beating cardiac muscle cell differentiation efficiency (Control (DMSO) = 100%),[4],1500% (KY02111)
same,"expressions of genes by DNA array (HOXA1, MSGN1, NKD1, T, TNFRSF11B, DKK1, DKK4, CDX2, MSX1, NODAL, FGF4 and others)",[5]; 12 hours and 24 hours after the addition,reduced
same,"expressions of MSGN1, HOXA1, T, MIXL1, Dkk1, AXIN2, NODAL and FGF4 (Wnt signaling target genes) by qPCR",[5]; FIG. 9,reduced
same,"expression of MSGN1, HOXA1, T, Dkk1 and FGF4 by qPCR","[5]; confirmation of DNA array, FIG. 8",same results as the DNA array analysis
same,Beating cardiac muscle cell differentiation efficiency (Control (DMSO) = 100%),[6],6100% (KY02111)
same,increase in the GFP expression level,"[7]; 10 μM during day 4 to 10, GFP at day 14",7400%
same,"effect of promoting cardiac muscle cell differentiation (GFP expression), comparison with Wnt signaling inhibitors and proteins","[7]; 10 μM during day 4 to 10, GFP at day 14, FIG. 10",strongest effect of promoting cardiac muscle cell differentiation
same,effect of BIO on the compound's effect of cardiac muscle cell differentiation (GFP expression),"[7]; BIO 5 μM added together with the compound during day 4 to 10, GFP at day 14",did not inhibit
same,increase in the GFP expression level versus Control (DMSO),[7]; [8],about 30 times
same,proportion of beating colonies,[7]; [8],about 30%
same,ratio of number of GFP colonies,[7]; [8],~73%
